Values joined by “and” are separate entries in the source; they are usually repeats but may differ in a detail not shown here. Equal values may be shown once. Read-outs that look alike come from different tables or passages of the source.
How the values were obtained:
[1] = Cyclobutanone/hydrate equilibrium by NMR; assay type: physicochemical
Text: Cyclobutanone 3y is soluble in CDCl3, but we wanted to vary the amount of D2O, and water has a solubility of only 0.815% in chloroform, so varying the quantity of D2O would not alter the concentration of D2O in CDCl3 solution once saturation is reached. We therefore selected DMSO-d6 as the solvent to enable the varying of the D2O concentration, which also provides a more polar environment that is more conducive to hydrate formation and is a better mimic of the environment of the enzyme in aqueous media. The ratio of hydrate to ketone was determined by the ratio of the integrals of the proton alpha to the hydrate/carbonyl and the α-amino group, which was 4.67 ppm for the hydrate in DMSO-d6 + 20% D2O and 4.40 ppm for the cyclobutanone ketone in DMSO-d6 + 20% D2O.
Cyclobutanone 3y was massed to 2–3 mg and the exact mass was recorded. Compound 3y was then dissolved in the appropriate amount of deuterated solvent (DMSO-d6 or CDCl3) and vortexed. The appropriate amount of deuterium oxide (0%, 2%, 10%, 20%, or 30%) was added to the sample and the sample was vortexed. The sample was inserted into the Bruker 500 MHz NMR and data were collected for 64 scans. The raw data were analyzed with the Mnova NMR program, and the Keq was calculated via the method described by the Wiberg group.

[2] = target: HiDapE (Haemophilus influenzae, UniProt P44514); assay: DapE inhibition, ninhydrin-based assay; assay type: biochemical
Chain of HiDapE (P44514 whole entry): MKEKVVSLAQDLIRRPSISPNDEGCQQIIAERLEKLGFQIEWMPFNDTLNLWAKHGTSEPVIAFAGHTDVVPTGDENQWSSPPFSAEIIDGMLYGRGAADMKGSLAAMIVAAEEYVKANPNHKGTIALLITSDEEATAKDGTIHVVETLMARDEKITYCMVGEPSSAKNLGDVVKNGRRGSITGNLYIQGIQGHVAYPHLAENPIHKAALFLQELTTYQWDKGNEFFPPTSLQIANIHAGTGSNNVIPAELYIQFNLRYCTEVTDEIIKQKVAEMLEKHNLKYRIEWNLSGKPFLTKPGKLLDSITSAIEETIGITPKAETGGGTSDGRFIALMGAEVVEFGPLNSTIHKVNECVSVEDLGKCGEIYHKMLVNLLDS
Experimental: All compounds were screened for DapE inhibitory potency using a ninhydrin-based assay at 100 μM, and IC50 values were determined for molecules that inhibited DapE > 70% at 100 μM (Table 1). Some SAR trends emerge from the data.
Experimental IC50 curves for cyclobutanone inhibitors against DapE were identified as sigmoidal shaped response curves, as opposed to simple hyperbolic plots. […] IC50 curves with the corresponding Hill coefficients are reported in the Supplementary Materials as Figures S74−S81. Experimental Hill coefficients may provide information on the number of binding sites of a biological target (receptors and enzymes) interacting with ligands.
The inhibition of HiDapE by potential inhibitors was assessed using the previously developed ninhydrin assay with slight modifications. It was performed in a PCR Thermal Cycler System. All experiments were performed in triplicate in 50 mM HEPES buffer at pH 7.5. Reaction volumes were 100 µL of 2 mM N^6-Methyl-L,L-SDAP and 8 nM HiDapE. Ninhydrin was purchased as a 2% solution in 100% DMSO/lithium acetate buffer at pH 5.2. The inhibitor, followed by HiDapE, was added to a 50 mM HEPES (pH 7.5) buffered solution at 30 °C, and the mixture was incubated at 30 °C for 10 min. N^6-Methyl-L,L-SDAP was added, and the reaction mixture was incubated at 30 °C for 10 min, then heated to 99 °C for 1 min, and further cooled to 0 °C for 1 min. The 2% ninhydrin solution (50 µL) was added, and the mixture was thoroughly mixed. The reaction mixture was heated to 80 °C for 15 min, then cooled to 0 °C for 1 min. The absorbance of an 80 μL aliquot was recorded at 570 nm on a BioTek Synergy 2 microplate reader. All the inhibition assays of HiDapE were performed in triplicate and the IC50 values were obtained by fitting the data following the modified Hill equation: V = V0 + (Vmax − V0) XnH/(XnH0.5 + XnH) using the graphing suite Origin 9.1 with the Levenberg–Marquardt non-linear least-squares algorithm. The velocity in the absence of the substrate is […]; the velocity at saturating concentrations of the substrate or with no inhibitor for the inhibition assay is Vmax; X is the concentration of the substrate or inhibitor; and X0.5 is the substrate (S0.5) and inhibitor (I0.5) concentration at 50% maximum velocity and at 50% inhibition, respectively. The Hill coefficient is represented as nH.

[3] = target: H. influenzae DapE (HiDapE) (Haemophilus influenzae, UniProt P44514); assay: Thermal shift assay (SYPRO Orange); assay type: binding
Chain of H. influenzae DapE (HiDapE) (P44514 whole entry): as above
Experimental: A thermal shift assay was conducted to observe changes in the thermal stability of DapE under various concentrations of the inhibitor 3y, as summarized in Table 2. These studies were conducted on a Step One Real-Time PCR System and associated QuantStudio software (QuantStudio 5, Design and Analysis 2) through the fluorescence of the SYPRO Orange dye during protein denaturation. […] Upon addition of the inhibitor 3y, we observed a stabilization of the tertiary structure of the enzyme binding to the inhibitor, as indicated by a positive shift in the first melt temperature (Tm1). […] The thermal shift assay plot of Tm vs. log [3y (µM)] to determine the Ki of compound 3y is in the Supplementary Materials as Figure S82. […] Binding of a ligand most commonly leads to further stabilization of a protein, but destabilization as indicated by a lower Tm has been observed by others. Based on our previous work, [27] we observed sequential temperatures at which HiDapE was dissociating via circular dichroism: first at about 60 °C, which we hypothesize is the dimer dissociating, and a second at about 80 °C, which may represent denaturation of the monomer.
H. influenzae DapE was used at a final concentration of 200 nM and SYPRO Orange was used at a final concentration of 10×. It was performed in a Step One Real-Time PCR System (Applied Biosystems, Waltham, MA, USA). The experiment was carried out in 10 µL triplicates in 50 mM HEPES buffer at pH 7.5, nanopure water, and the inhibitor concentrations were based on the IC50 values of the inhibitor, 3y. Sample solutions were dispensed into a 96-well optical reaction plate (Thermo Fisher Scientific, Waltham, […], USA) and the plate was sealed with an optical PCR plate sheet (Thermo Fisher Scientific). […] Melting curves were obtained from the negative derivative and exported from the instrument into Excel. The negative melting temperatures were smoothed and differentiated to the negative third derivative. The Tm data were plotted against the log(concentration of 3y) with GraphPad Prism using a derived Van’t Hoff equation [39] to find the Ki value.

[4] = parameters: method as in doi:10.1021/ja00103a024; conditions: in D2O, cited from earlier work
[5] = system: DapE; conditions: cited from earlier work

COc1ccc(S(=O)(=O)N[C@@H](C(=O)NC2CCC2=O)C(C)C)cc1 (mixture of isomers) [3y, (2R)-2-((4-Methoxyphenyl)sulfonamido)-3-methyl-N-(2-oxocyclobutyl)butanamide]
% Hydrate ([1]; CDCl3 + 30% D2O): 7.33% | Keq = [hydrate]/[ketone] ([1]; CDCl3 + 30% D2O (saturated with D2O)): 0.082 | % Hydrate ([1]; DMSO-d6 + 2% D2O): 35.4% | Keq = [hydrate]/[ketone] ([1]; DMSO-d6 + 2% D2O): 0.58 | % Hydrate ([1]; DMSO-d6 + 10% D2O): 38.8% | Keq = [hydrate]/[ketone] ([1]; DMSO-d6 + 10% D2O): 0.61 | % Hydrate ([1]; DMSO-d6 + 20% D2O): 40% | melting point: 179 to 181 °C | inhibition at 100 µM ([2]; 100 µM inhibitor, read-out: DapE % Inhib at 100 µM): 99.7% | IC50 ([2]; ninhydrin assay): 23.1 ± 0.9 µM | Tm1 ([3]; 200 nM HiDapE + 1 μM 3y): 49.6 +/− 0.18 °C | Tm2 ([3]; 200 nM HiDapE + 1 μM 3y): 76.5 +/− 0.54 °C | Tm1 ([3]; 200 nM HiDapE + 5 μM 3y): 49.0 +/− 0.30 °C | Tm2 ([3]; 200 nM HiDapE + 5 μM 3y): 77.3 +/− 0.20 °C | Tm1 ([3]; 200 nM HiDapE + 10 μM 3y): 50.0 +/− 0.34 °C | Tm2 ([3]; 200 nM HiDapE + 10 μM 3y): 77.3 +/− 0.23 °C | Tm1 ([3]; 200 nM HiDapE + 20 μM 3y): 51.2 +/− 0.13 °C | Tm2 ([3]; 200 nM HiDapE + 20 μM 3y): 77.3 +/− 0.51 °C | Tm1 ([3]; 200 nM HiDapE + 30 μM 3y): 52.1 +/− 0.5 °C | Tm2 ([3]; 200 nM HiDapE + 30 μM 3y): 75.1 +/− 0.17 °C | Tm1 ([3]; 200 nM HiDapE + 40 μM 3y): 52.7 +/− 0.37 °C | Tm2 ([3]; 200 nM HiDapE + 40 μM 3y): 75.2 +/− 0.11 °C | Tm1 ([3]; 200 nM HiDapE + 50 μM 3y): 53.4 +/− 0.23 °C | Tm2 ([3]; 200 nM HiDapE + 50 μM 3y): 74.7 +/− 0.40 °C | Tm1 ([3]; 200 nM HiDapE + 60 μM 3y): 54.1 +/− 0.35 °C | Tm2 ([3]; 200 nM HiDapE + 60 μM 3y): 75.1 +/− 0.23 °C | Tm1 ([3]; 200 nM HiDapE + 75 μM 3y): 54.6 +/− 0.42 °C | Tm2 ([3]; 200 nM HiDapE + 75 μM 3y): 75.7 °C and 75.7 +/− 0.29 °C | Ki ([3]; from Tm1 vs log[3y], 200 nM HiDapE): 10.2 µM

O=C1CCC1 [Cyclobutanone, cyclobutanone]
% Hydrate [4]: 2.0% | Keq = [hydrate]/[ketone] [4]: 2.8 × 10^−3 | % Hydrate ([4]; listed as cyclobutanone): about 2%

C[C@H](CS)C(=O)N1CCC[C@H]1C(=O)O [captopril]
DapE inhibition [5]: low micromolar inhibitor
